Like-named read-outs stand apart in the source and are kept apart here. A value given as a limit tells only on which side of the number the result lay.

Drawing on patent US6960597B2, “Aza-bridged-bicyclic amino acid derivatives as α4 integrin antagonists” (Orth-McNeil Pharmaceutical, Inc., priority 2000, dated 2005), this text covers IC50 for 14 compounds.

One experiment has as its target T1, human α4β7 (Homo sapiens, UniProt P13612+P26010).
T1 construct: expressed in transfected cells
T1 sequence (P13612 34-1032): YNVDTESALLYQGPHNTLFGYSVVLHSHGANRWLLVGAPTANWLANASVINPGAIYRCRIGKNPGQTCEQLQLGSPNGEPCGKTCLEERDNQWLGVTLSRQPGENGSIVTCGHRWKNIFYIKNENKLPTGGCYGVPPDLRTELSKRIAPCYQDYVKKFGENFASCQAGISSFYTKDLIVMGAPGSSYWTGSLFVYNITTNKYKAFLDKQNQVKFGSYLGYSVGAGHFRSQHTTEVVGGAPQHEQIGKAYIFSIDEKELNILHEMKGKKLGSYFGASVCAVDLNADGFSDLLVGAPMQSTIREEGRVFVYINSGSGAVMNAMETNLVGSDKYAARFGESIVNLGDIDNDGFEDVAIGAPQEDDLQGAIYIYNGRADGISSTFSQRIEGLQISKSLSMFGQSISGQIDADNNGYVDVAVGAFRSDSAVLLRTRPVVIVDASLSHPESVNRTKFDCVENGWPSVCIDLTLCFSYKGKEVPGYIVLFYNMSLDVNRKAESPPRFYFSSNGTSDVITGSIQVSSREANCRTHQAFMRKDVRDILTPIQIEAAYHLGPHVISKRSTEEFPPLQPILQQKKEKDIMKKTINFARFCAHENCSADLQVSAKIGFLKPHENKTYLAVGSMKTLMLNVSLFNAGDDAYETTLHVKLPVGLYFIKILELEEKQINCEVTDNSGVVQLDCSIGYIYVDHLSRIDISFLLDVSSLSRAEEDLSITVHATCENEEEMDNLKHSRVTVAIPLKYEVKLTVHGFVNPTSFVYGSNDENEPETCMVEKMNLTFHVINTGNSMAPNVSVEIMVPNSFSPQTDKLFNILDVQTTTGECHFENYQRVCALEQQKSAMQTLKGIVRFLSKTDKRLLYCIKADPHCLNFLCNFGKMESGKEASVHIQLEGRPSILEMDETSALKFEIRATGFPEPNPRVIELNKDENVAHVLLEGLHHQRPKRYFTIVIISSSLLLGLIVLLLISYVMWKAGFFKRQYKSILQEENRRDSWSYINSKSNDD
T1 sequence (P26010 20-798): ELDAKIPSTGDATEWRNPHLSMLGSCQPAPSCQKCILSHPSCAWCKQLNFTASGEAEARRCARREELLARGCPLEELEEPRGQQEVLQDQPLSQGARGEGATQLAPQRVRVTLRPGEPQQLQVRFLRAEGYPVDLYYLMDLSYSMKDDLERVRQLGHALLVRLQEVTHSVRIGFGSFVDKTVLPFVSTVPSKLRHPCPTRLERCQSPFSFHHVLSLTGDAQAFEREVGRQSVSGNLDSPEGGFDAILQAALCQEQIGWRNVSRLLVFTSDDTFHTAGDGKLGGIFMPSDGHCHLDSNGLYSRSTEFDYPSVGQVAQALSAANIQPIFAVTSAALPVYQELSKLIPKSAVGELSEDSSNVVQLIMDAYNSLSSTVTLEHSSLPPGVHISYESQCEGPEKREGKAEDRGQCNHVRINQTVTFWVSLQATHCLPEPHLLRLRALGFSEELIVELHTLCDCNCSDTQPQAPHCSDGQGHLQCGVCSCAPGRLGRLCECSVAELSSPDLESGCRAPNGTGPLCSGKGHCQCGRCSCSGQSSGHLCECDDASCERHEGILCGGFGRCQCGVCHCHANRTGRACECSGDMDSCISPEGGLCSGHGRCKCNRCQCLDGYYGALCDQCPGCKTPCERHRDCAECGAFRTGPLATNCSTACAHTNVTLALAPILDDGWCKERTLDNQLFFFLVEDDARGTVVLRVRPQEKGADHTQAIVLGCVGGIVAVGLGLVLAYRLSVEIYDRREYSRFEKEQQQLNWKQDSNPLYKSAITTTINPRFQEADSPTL
In words: α4β7-K562 Cell Adhesion Assay (α4β7 Mediated Adhesion/VCAM-1). The experiment is classed as cell-based. The method, then:
α4β7-K562 Cell Adhesion Assay (α4β7 Mediated Adhesion/VCAM-1)
(§1) Immulon 96 well plates (Dynex) were coated with 100 μL recombinant hVCAM-1 at 4.0 μg/mL in 0.05 M NaCO3 buffer pH 9.0 overnight at 4° C. (R&D Systems). Plates were washed 3 times in PBS with 1% BSA and blocked for 1 h @ room temperature in this buffer. PBS was removed and compounds to be tested (50 μL) were added at 2× concentration. A stable cell line of K562 cells expressing human α4β7, (50 μL at 2×10^6/mL) labeled with 5 μM Calcein AM (Molecular Probes) for 1 h at 37° C., were added to each well and allowed to adhere for 1 h at room temperature. Plates were washed 3× in PBS+1% BSA and cells were lysed for 15 minutes in 100 μL of 1 M Tris pH 8.0 with 1% SDS. The plate was read at 485 nm excitation and 530 nm emission.

The target in another experiment is T2, α4β1 integrin receptor (Homo sapiens, UniProt P05556+P13612).
T2 construct: Ramos Cell Adhesion Assay (α4β1 Mediated Adhesion/VCAM-1); endogenous in cells; host or cells: Ramos cells
T2 sequence (P05556 21-798, one chain of several): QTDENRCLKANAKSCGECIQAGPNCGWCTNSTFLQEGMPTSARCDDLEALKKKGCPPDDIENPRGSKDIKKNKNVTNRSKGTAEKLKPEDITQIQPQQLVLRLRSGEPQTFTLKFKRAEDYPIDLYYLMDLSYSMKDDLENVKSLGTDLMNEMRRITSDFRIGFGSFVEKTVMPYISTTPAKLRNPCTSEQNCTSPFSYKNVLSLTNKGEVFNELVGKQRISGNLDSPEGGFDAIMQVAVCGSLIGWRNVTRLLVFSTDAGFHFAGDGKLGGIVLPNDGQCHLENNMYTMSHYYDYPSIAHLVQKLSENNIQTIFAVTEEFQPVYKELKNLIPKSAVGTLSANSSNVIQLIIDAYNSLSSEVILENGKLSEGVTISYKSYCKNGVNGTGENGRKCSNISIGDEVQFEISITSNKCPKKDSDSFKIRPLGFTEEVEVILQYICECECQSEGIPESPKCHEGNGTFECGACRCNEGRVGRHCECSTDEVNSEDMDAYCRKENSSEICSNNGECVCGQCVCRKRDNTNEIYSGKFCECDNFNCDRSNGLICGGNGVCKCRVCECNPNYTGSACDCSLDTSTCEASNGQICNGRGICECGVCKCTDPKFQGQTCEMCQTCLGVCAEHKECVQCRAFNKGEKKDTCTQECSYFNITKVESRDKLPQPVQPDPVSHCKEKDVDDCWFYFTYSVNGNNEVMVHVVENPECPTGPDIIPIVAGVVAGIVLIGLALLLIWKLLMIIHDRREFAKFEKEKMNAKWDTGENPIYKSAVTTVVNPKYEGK
Nature of the experiment: Ramos Cell Adhesion Assay (α4β1 Mediated Adhesion/VCAM-1). The experiment is classed as cell-based. Here is the method:
Ramos Cell Adhesion Assay (α4β1 Mediated Adhesion/VCAM-1)
as §1, with “Ramos cells,” for “A stable cell line of K562 cells expressing human α4β7,”

Setting [1] is: Table I, racemic mixtures and resolved (S,S) and (R,S) diastereomers, read-out: Antagonist IC50 Activity α4β7.
Setting [2] is: Table I, racemic mixtures and resolved (S,S) and (R,S) diastereomers, read-out: Antagonist IC50 Activity α4β1.
The mark [3] stands for this setting: Table III, read-out: Inhibition of Binding of Ramos Cells to Immobilized VCAM-1 IC50.
The mark [4] stands for this setting: Table IV, μM, read-out: Inhibition of Binding of K562 Cells to Immobilized VCAM-1 IC50.
[5] abbreviates: Table III, μM, read-out: Inhibition of Binding of Ramos Cells to Immobilized VCAM-1 IC50.

Consider `COc1cccc(OC)c1C(=O)Nc1ccc(C[C@H](NC(=O)[C@@H]2C3CCC(C3)N2S(=O)(=O)c2ccccc2)C(=O)O)cc1` (stereo partly drawn) [Cpd 19a, 4-[(2,6-dimethoxybenzoyl)amino]-N-[[(3S)-2-(phenylsulfonyl)-2-azabicyclo[2.2.1]hept-3-yl]carbonyl]-L-phenylalanine], for which the values for the IC50 on human α4β7 (setting [1]), at α4β1 integrin receptor (setting [2]) and on α4β1 integrin receptor (setting [3]) were 3.82 µM, 0.3 µM and 0.3 µM, respectively.

Regarding `COc1cccc(OC)c1C(=O)Nc1ccc(C[C@H](NC(=O)[C@H]2C3CCC(C3)N2S(=O)(=O)c2ccccc2)C(=O)O)cc1` (stereo partly drawn) [Cpd 19b, 4-[(2,6-dimethoxybenzoyl)amino]-N-[[(3R)-2-(phenylsulfonyl)-2-azabicyclo[2.2.1]hept-3-yl]carbonyl]-L-phenylalanine], the IC50 at human α4β7 (setting [1]) turned out to be 3.22 µM; on α4β1 integrin receptor (setting [2]), 1.21 µM; at α4β1 integrin receptor (setting [3]), 1.21 µM.

Consider `Cc1ccc(S(=O)(=O)N2C3CCC(CC3)C2C(=O)N[C@@H](Cc2ccc(C#Cc3ccc(C(C)(C)C)cc3)cc2)C(=O)O)cc1` (stereo partly drawn) [Cpd 23, 4-[[4-(1,1-dimethylethyl)phenyl]ethynyl]-N-[[2-[(4-methylphenyl)sulfonyl]-2-azabicyclo[2.2.2]oct-3-yl]carbonyl]-L-phenylalanine], for which the IC50 at human α4β7 (setting [4]) is more than 10 µM; at α4β1 integrin receptor (setting [3]), 1.42 µM.

Turning to `Cc1ccc(S(=O)(=O)N2C3CCC(CC3)C2C(=O)N[C@@H](Cc2ccc(C#Cc3ccccc3)cc2)C(=O)O)cc1` (stereo partly drawn) [Cpd 24, 4-(phenylethynyl)-N-[[2-[(4-methylphenyl)sulfonyl]-2-azabicyclo[2.2.2]oct-3-yl]carbonyl]-L-phenylalanine], the figures for the IC50 on human α4β7 (setting [4]) and on α4β1 integrin receptor (setting [3]) were more than 10 µM and 1.1 µM, respectively.

Turning to `Cc1ccc(S(=O)(=O)N2C3CCC(CC3)C2C(=O)N[C@@H](Cc2ccc(NC(=O)c3ccccc3)cc2)C(=O)O)cc1` (stereo partly drawn) [Cpd 25, 4-(benzoylamino)-N-[[2-[(4-methylphenyl)sulfonyl]-2-azabicyclo[2.2.2]oct-3-yl]carbonyl]-L-phenylalanine], the IC50 is more than 10 µM on human α4β7 (setting [4]) and 0.903 µM at α4β1 integrin receptor (setting [3]).

`COc1ccc(OC)c(C(=O)c2ccc(C(=O)Nc3ccc(C[C@H](NC(=O)C4C5CCC(CC5)N4S(=O)(=O)c4ccc(C)cc4)C(=O)O)cc3)cc2)c1` (stereo partly drawn) [Cpd 26, 4-[[4-(2,5-dimethoxybenzoyl)benzoyl]amino]-N-[[2-[(4-methylphenyl)sulfonyl]-2-azabicyclo[2.2.2]oct-3-yl]carbonyl]-L-phenylalanine]: the results for the half-maximal inhibitory concentration (IC50) on human α4β7 (setting [4]) and at α4β1 integrin receptor (setting [3]) were more than 10 µM and 0.669 µM, respectively.

Turning to `Cc1ccc(S(=O)(=O)N2C3CCC(CC3)C2C(=O)N[C@@H](Cc2ccc(NC(=O)Cc3c(Cl)cccc3Cl)cc2)C(=O)O)cc1` (stereo partly drawn) [Cpd 27, 4-[[(2,6-dichlorophenyl)acetyl]amino]-N-[[2-[(4-methylphenyl)sulfonyl]-2-azabicyclo[2.2.2]oct-3-yl]carbonyl]-L-phenylalanine], the values for the IC50 on human α4β7 (setting [4]) and at α4β1 integrin receptor (setting [3]) were more than 10 µM and 1.09 µM, respectively.

Take `O=C(Nc1ccc(C[C@H](NC(=O)C2C3CCC(CC3)N2S(=O)(=O)c2ccccc2)C(=O)O)cc1)Nc1c(Cl)cccc1Cl` (stereo partly drawn) [Cpd 28, 4-[[[(2,6-dichlorophenyl)amino]carbonyl]amino]-N-[[2-(phenylsulfonyl)-2-azabicyclo[2.2.2]oct-3-yl]carbonyl]-L-phenylalanine]: the IC50 was more than 5 µM at human α4β7 (setting [4]) and 1.6 µM on α4β1 integrin receptor (setting [3]).

Regarding `Cc1ccc(S(=O)(=O)N2C3CCC(CC3)[C@H]2C(=O)N[C@@H](Cc2ccc(OCc3c(Cl)cccc3Cl)cc2)C(=O)O)cc1` [Cpd 29, 4-[(2,6-dichlorophenyl)methoxy]-N-[[(3S)-2-[[4-methylphenyl)sulfonyl]-2-azabicyclo[2.2.2]oct-3-yl]carbonyl]-L-phenylalanine], the 50% inhibitory concentration (IC50) at human α4β7 (Table IV, read-out: Inhibition of Binding of K562 Cells to Immobilized VCAM-1 IC50) is 4.94 µM; on α4β1 integrin receptor (setting [3]), 0.058 µM.

Consider `Cc1ccc(S(=O)(=O)N2C3CCC(CC3)C2C(=O)N[C@@H](Cc2ccc(OCc3ccccc3)cc2)C(=O)O)cc1` (stereo partly drawn) [Cpd 30, 4-(phenylmethoxy)-N-[[2-[(4-methylphenyl)sulfonyl]-2-azabicyclo[2.2.2]oct-3-yl]carbonyl]-L-phenylalanine], for which the IC50 on human α4β7 (setting [4]) was more than 10 µM; on α4β1 integrin receptor (setting [5]) it was more than 5 µM.

Turning to `Cc1ccc(S(=O)(=O)N2C3CCC(CC3)C2C(=O)N[C@@H](Cc2ccc(NC(=O)c3c(C(C)C)cc(C(C)C)cc3C(C)C)cc2)C(=O)O)cc1` (stereo partly drawn) [Cpd 31, 4-[[2,4,6-tris(1-methylethyl)benzoyl]amino]-N-[[2-[(4-methylphenyl)sulfonyl]-2-azabicyclo[2.2.2]oct-3-yl]carbonyl]-L-phenylalanine], the IC50 at human α4β7 (setting [4]) is more than 10 µM; on α4β1 integrin receptor (setting [5]), more than 5 µM.

For `Cc1ccc(S(=O)(=O)N2C3CCC(CC3)C2C(=O)N[C@@H](Cc2ccc(-n3cccc3)cc2)C(=O)O)cc1` (stereo partly drawn) [Cpd 32, 4-(1H-pyrrol-1-yl)-N-[[2-[(4-methylphenyl)sulfonyl]-2-azabicyclo[2.2.2]oct-3-yl]carbonyl]-L-phenylalanine], the IC50 on human α4β7 (setting [4]) was more than 10 µM; at α4β1 integrin receptor (setting [5]) it was more than 5 µM.

Take `Cc1ccc(S(=O)(=O)N2C3CCC(CC3)C2C(=O)N[C@@H](Cc2ccc(-c3ccccc3)cc2)C(=O)O)cc1` (stereo partly drawn) [Cpd 33, 4-phenyl-N-[[2-[(4-methylphenyl)sulfonyl]-2-azabicyclo[2.2.2]oct-3-yl]carbonyl]l-L-phenylalanine]: the IC50 at human α4β7 (setting [4]) is more than 10 µM; on α4β1 integrin receptor (setting [5]), more than 5 µM.

Take `O=C(Nc1ccc(C[C@H](NC(=O)C2C3CCC(CC3)N2S(=O)(=O)c2ccccc2)C(=O)O)cc1)Nc1c(F)cccc1F` (stereo partly drawn) [Cpd 34, 4-[[[(2,6-difluorophenyl)amino]carbonyl]amino]-N-[[2-(phenylsulfonyl)-2-azabicyclo[2.2.2]oct-3-yl]carbonyl]-L-phenylalanine]: the values for the IC50 at human α4β7 (setting [4]) and at α4β1 integrin receptor (setting [5]) were more than 10 µM and more than 5 µM, respectively.

In general, IC50 refers to the point on the concentration scale where inhibition reaches its midpoint.
